The results in this text go back to patent publication US9936700B2, “Substituted quinoxaline derivatives as pest control agent” (BAYER CROPSCIENCE AKTIENGESELLSCHAFT, priority 2013, dated 2018).

A short description of data set [1]: log P by reversed-phase HPLC (EEC Directive 79/831 Annex V.A8). It counts as physicochemical. The note with it: for chromatographic logP: reversed-phase C18 HPLC column. The source says: NMR data and log P values: log P (HCOOH)=log P[a] log P (neutral)=log P[b]
^[a] […] Called log P (HCOOH) in the table.
^[b] […] Called log P (neutral) in the table.

The next data set concerns Tetranychus urticae. Kind of data set: Tetranychus urticae spray test, OP-resistant (TETRUR). It counts as in vivo. The following applies: 500 g/ha, bean leaf discs, after 6 days. As to the method: Tetranychus urticae—spray test, OP-resistant (TETRUR)
• Solvent: 78.0 parts by weight of acetone • 1.5 parts by weight of dimethylformamide • Emulsifier: 0.5 part by weight of alkylaryl polyglycol ether
After 6 days, the efficacy in % is determined. 100% means that all the spider mites have been killed; 0% means that no spider mites have been killed.

Where [2] appears, read: acidic range, pH 2.7, 0.1% aqueous formic acid/acetonitrile.
The mark [3] stands for this setting: neutral range, pH 7.8, aqueous ammonium hydrogencarbonate/acetonitrile.
Setting [4] is: acidic range, pH 2.7, 0.1% aqueous formic acid/acetonitrile, read-out: logP [a] = log P (HCOOH).
[5] abbreviates: neutral range, pH 7.8, aqueous ammonium hydrogencarbonate/acetonitrile, read-out: logP [b] = log P (neutral).

Molecules are shown by their SMILES. Where two headings read alike, the source gives them in different places.

For `Clc1cc2ncc(-c3ccncc3)nc2cc1Cl` [Example I-73], in data set [1] (setting [2]), the “logP [a] = log P (HCOOH)” value was 2.53.
On the same count and under the same terms, for `Cc1c[n+]([O-])ccc1-c1c[n+]([O-])c2cc(C(F)(F)F)ccc2n1` [Example I-55] the value was 1.59.
For the molecule `CS(=O)(=O)c1ccccc1-c1cnc2cc(Cl)ccc2n1` [Example I-28], the “logP [a] = log P (HCOOH)” value in data set [1] (pH 2.7) is 2.52. For the same molecule, the “logP [b] = log P (neutral)” value in data set [1] (pH 7.8) is 2.52.
As to `Fc1cc2ncc(-c3ccncc3Cl)nc2cc1F` [Example I-70], the “logP [a] = log P (HCOOH)” value in data set [1] (pH 2.7) was 2.72.
Take `Cc1ccccc1-c1cnc2ccc(C(F)(F)F)cc2n1` [Example I-47]: in data set [1] (setting [2]), the “logP [a] = log P (HCOOH)” value is 4.47. Besides, the “logP [b] = log P (neutral)” value in data set [1] (setting [3]) is given as 4.41.
Consider `Cc1cscc1-c1cnc2cc(C(F)(F)F)ccc2n1` [Example I-45], for which the “logP [a] = log P (HCOOH)” value in data set [1] (pH 2.7) amounted to 4.57.
As to `Cc1cnccc1-c1cnc2cc(Cl)c(Cl)cc2n1` [Example I-41], the “logP [a] = log P (HCOOH)” value in data set [1] (pH 2.7) was determined as 2.51. For the same molecule, in data set [1] (pH 7.8), the “logP [b] = log P (neutral)” value is on record as 3.29.
Consider `Cc1cccnc1-c1cnc2cc(C(F)(F)F)ccc2n1` [Example I-52], for which the “logP [a] = log P (HCOOH)” value in data set [1] (pH 2.7) is reported as 3.69.
`O=c1cnc2cc3c(cc2[nH]1)OC(F)(F)O3` [VIa-03, 2,2-difluoro[1,3]dioxolo[4,5-g]quinoxalin-6(5H)-one]: the chromatographic logP in data set [1] (setting [4]) came to 1.49; in data set [1] (setting [5]), 1.33.
Regarding `FC(F)(F)c1ccc2nc(-c3ccc(Cl)cc3)cnc2c1` [Example I-25], the “efficacy (spider mites killed)” value with Tetranychus urticae was determined as 90%. Also, in data set [1] (setting [2]), the “logP [a] = log P (HCOOH)” value is reported as 4.99.
On to `CCSc1ccccc1-c1nc2ccc(C(F)(F)F)cc2nc1Cl` [Example I-3, 3-Chloro-2-[2-(ethylsulfanyl)phenyl]-6-(trifluoromethyl)quinoxaline], for which the chromatographic logP in data set [1] (setting [4]) came to 5.2.
As for `N#Cc1ccc2nc(-c3ccncc3)cnc2c1` [Example I-61], the “logP [a] = log P (HCOOH)” value in data set [1] (setting [2]) was 1.19.
`Cc1cnccc1-c1nc2ccc(C(F)(F)F)cc2nc1Cl` [Example I-37]: in data set [1] (pH 2.7), the “logP [a] = log P (HCOOH)” value was 2.94.
In the case of `Cc1ccsc1-c1cnc2ccc(C(F)(F)F)cc2n1` [Example I-43], the “efficacy (spider mites killed)” value in the data set with Tetranychus urticae is 90%. For the same molecule, in data set [1] (pH 2.7), the “logP [a] = log P (HCOOH)” value is listed as 4.65. In addition, the “logP [b] = log P (neutral)” value in data set [1] (pH 7.8) turned out to be 4.66.
For the molecule `FC(F)(F)c1ccccc1-c1cnc2cc(Cl)ccc2n1` [Example I-21], in the data set on Tetranychus urticae, the “efficacy (spider mites killed)” value is given as 100%. The “logP [a] = log P (HCOOH)” value in data set [1] (pH 2.7) is listed as 4.17.
On to `Cc1cnccc1-c1nc2cc3c(cc2nc1C)OC(F)(F)O3` [Example I-67], for which the “logP [a] = log P (HCOOH)” value in data set [1] (pH 2.7) is on record as 2.02.
The same measure, in the same setting: for `CCSc1ccccc1-c1cnc2cc(Cl)ccc2n1` [Example I-23] the value was 4.56; for `Clc1cc2ncc(-c3ccncc3Cl)nc2cc1Cl` [Example I-71], 3.78; for `Clc1ccc2nc(-c3ccncc3Cl)cnc2c1` [Example I-39], 2.99.
Take `Cn1nccc1-c1cnc2cc(C(F)(F)F)ccc2n1` [Example I-49]: in data set [1] (setting [2]), the “logP [a] = log P (HCOOH)” value is listed as 3.07. For the same molecule, the “logP [b] = log P (neutral)” value in data set [1] (setting [3]) is 3.05.
For `Cc1cnccc1-c1nc2ccc(C(F)(F)F)cc2nc1-c1ccc(Cl)cc1` [Example I-64], the “logP [a] = log P (HCOOH)” value in data set [1] (setting [2]) is listed as 4.03.
Turning to `CCSc1ccccc1-c1cnc2ccc(S(C)(=O)=O)cc2n1` [Example I-35], the “logP [a] = log P (HCOOH)” value in data set [1] (pH 2.7) was 2.85. Besides, in data set [1] (pH 7.8), the “logP [b] = log P (neutral)” value was determined as 2.78.
Consider `[O-][n+]1cc(-c2ccc(C(F)(F)F)cc2)nc2cc3c(cc21)OC(F)(F)O3` [Example I-6, 2,2-Difluoro-7-[4-(trifluoromethyl)phenyl][1,3]dioxolo [4,5-g]quinoxaline 5-oxide], for which, in data set [1] (setting [4]), the chromatographic logP worked out at 4.12.
`CCSc1ccccc1-c1nc2cc3c(cc2nc1-c1ccc(Cl)cc1)OC(F)(F)O3` [Example I-59]: in data set [1] (setting [2]), the “logP [a] = log P (HCOOH)” value was determined as 6.23.
On to `Cc1cnccc1-c1cnc2cc(Cl)ccc2n1` [Example I-17], for which the “logP [a] = log P (HCOOH)” value in data set [1] (pH 2.7) worked out at 1.69. Besides, the “logP [b] = log P (neutral)” value in data set [1] (pH 7.8) is 2.58.
With `FC1(F)Oc2cc3ncc(-c4ccc(C(F)(F)F)cc4)nc3cc2O1` [Example I-5, 2,2-Difluoro-6-[4-(trifluoromethyl)phenyl][1,3]dioxolo [4,5-g]quinoxaline], in data set [1] (setting [4]), the chromatographic logP stood at 5.02.
With `O=c1[nH]c2cc3c(cc2nc1-c1ccc(Cl)cc1)OC(F)(F)O3` [VIb-01, 7-(4-chlorophenyl)-2,2-difluoro [1,3]dioxolo [4,5-g]quinoxalin-6(5H)-one], the chromatographic logP in data set [1] (setting [4]) amounted to 2.96.
As for `CSc1ccccc1-c1cnc2cc(C(F)(F)F)ccc2n1` [Example I-16], in data set [1] (pH 2.7), the “logP [a] = log P (HCOOH)” value is 4.45. In data set [1] (pH 7.8), the “logP [b] = log P (neutral)” value is listed as 4.31.
As to `O=c1cnc2cc(C(F)(F)F)ccc2[nH]1` [VIa-01, 6-(trifluoromethyl)quinoxalin-2(1H)-one], the chromatographic logP in data set [1] (setting [5]) turned out to be 1.71.
For `Cn1nccc1-c1cnc2ccc(C(F)(F)F)cc2n1` [Example I-50], the “logP [a] = log P (HCOOH)” value in data set [1] (setting [2]) was found to be 3.02. Besides, the “logP [b] = log P (neutral)” value in data set [1] (setting [3]) was determined as 3.00.
Turning to `Cc1cnccc1-c1nc2cc(C(F)(F)F)ccc2nc1-c1ccc(Cl)cc1` [Example I-68], the “logP [a] = log P (HCOOH)” value in data set [1] (setting [2]) amounted to 3.94.
Consider `CCSc1ccccc1-c1cnc2cc(C#N)ccc2n1` [Example I-57], for which, in data set [1] (pH 2.7), the “logP [a] = log P (HCOOH)” value worked out at 3.60. For the same molecule, the “logP [b] = log P (neutral)” value in data set [1] (pH 7.8) is listed as 3.55.
In the same order, the values of `Cc1cnccc1-c1cnc2ccc(S(C)(=O)=O)cc2n1` [Example I-13] are 0.72 and 1.34.
For `Cc1cnccc1-c1nc2cc(F)c(F)cc2nc1C` [Example I-65], the “logP [a] = log P (HCOOH)” value in data set [1] (pH 2.7) came to 1.58.
As to `FC(F)(F)c1ccc2nc(Cl)c(-c3ccc(Cl)cc3)nc2c1` [Example I-53], the “logP [a] = log P (HCOOH)” value in data set [1] (setting [2]) is 5.31.
For the molecule `Clc1ccc2nc(-c3cncnc3)cnc2c1` [Example I-19], the “logP [a] = log P (HCOOH)” value in data set [1] (pH 2.7) turned out to be 2.01.
Consider `CCSc1ccccc1-c1cnc2cc(Cl)c(Cl)cc2n1` [Example I-42], for which the “logP [a] = log P (HCOOH)” value in data set [1] (pH 2.7) amounted to 5.38. In addition, in data set [1] (pH 7.8), the “logP [b] = log P (neutral)” value was 5.48.
Take `Cc1ccc(-c2c[n+]([O-])c3ccc(C(F)(F)F)cc3n2)c(F)c1` [Example I-54]: the “logP [a] = log P (HCOOH)” value in data set [1] (pH 2.7) stood at 4.04. For the same molecule, in data set [1] (pH 7.8), the “logP [b] = log P (neutral)” value was 4.00.
`Cc1nc2cc(C(F)(F)F)ccc2nc1-c1cccnc1` [Example I-60]: the “logP [a] = log P (HCOOH)” value in data set [1] (setting [2]) stood at 2.39.
As to `FC(F)(F)c1ccc2nc(-c3ccncc3)c(-c3ccncc3)nc2c1` [Example I-58], the “logP [a] = log P (HCOOH)” value in data set [1] (setting [2]) came to 2.06.
For `Cc1cscc1-c1cnc2ccc(C(F)(F)F)cc2n1` [Example I-44], the “logP [a] = log P (HCOOH)” value in data set [1] (pH 2.7) is listed as 4.57.
Same read-out and setting: in the case of `Cc1cnccc1-c1nc2cc(C(F)(F)F)ccc2nc1Cl` [Example I-38] it was 2.88.
As for `Clc1ccc2nc(-c3ccnc(Cl)c3)cnc2c1` [Example I-69], in data set [1] (setting [2]), the “logP [a] = log P (HCOOH)” value is on record as 3.52.
For the molecule `FC1(F)Oc2cc3ncc(-c4ccncc4Cl)nc3cc2O1` [Example I-72], in data set [1] (pH 2.7), the “logP [a] = log P (HCOOH)” value turned out to be 3.24.
`O=c1cnc2ccc(C(F)(F)F)cc2[nH]1` [VIa-02, 7-(trifluoromethyl)quinoxalin-2(1H)-one]: in data set [1] (setting [5]), the chromatographic logP stood at 1.65.
Take `CCc1cnccc1-c1cnc2ccc(C(F)(F)F)cc2n1` [Example I-27]: the “efficacy (spider mites killed)” value with Tetranychus urticae is 90%.
As to `Cc1cnccc1-c1cnc2cc(C#N)ccc2n1` [Example I-56], in data set [1] (pH 2.7), the “logP [a] = log P (HCOOH)” value was 1.17. In addition, in data set [1] (pH 7.8), the “logP [b] = log P (neutral)” value is on record as 1.81.
